Measured values published in PubChem BioAssay AID504416 (Johns Hopkins Ion Channel Center, 2011).
Calls of active or inactive are those of the source.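 The calls were made as follows: active = raises or lowers thallium flux through KCNQ4 potassium channels at some tested dose, with a fitted dose response curve; inactive = no effect at any dose or no curve.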

Target: Potassium voltage-gated channel subfamily KQT member 4 (Homo sapiens) (UniProt P56696)
Test: KCNQ4 channel modulation, potentiation or inhibition, dose response, selectivity assay for KCNQ2 activator project, thallium flux, KCNQ4-expressing cells (AID 504416)
Details: FluxOR thallium flux fluorescence

Potassium voltage-gated channel subfamily KQT member 4 (Homo sapiens), sequence (P56696 whole entry, looked up): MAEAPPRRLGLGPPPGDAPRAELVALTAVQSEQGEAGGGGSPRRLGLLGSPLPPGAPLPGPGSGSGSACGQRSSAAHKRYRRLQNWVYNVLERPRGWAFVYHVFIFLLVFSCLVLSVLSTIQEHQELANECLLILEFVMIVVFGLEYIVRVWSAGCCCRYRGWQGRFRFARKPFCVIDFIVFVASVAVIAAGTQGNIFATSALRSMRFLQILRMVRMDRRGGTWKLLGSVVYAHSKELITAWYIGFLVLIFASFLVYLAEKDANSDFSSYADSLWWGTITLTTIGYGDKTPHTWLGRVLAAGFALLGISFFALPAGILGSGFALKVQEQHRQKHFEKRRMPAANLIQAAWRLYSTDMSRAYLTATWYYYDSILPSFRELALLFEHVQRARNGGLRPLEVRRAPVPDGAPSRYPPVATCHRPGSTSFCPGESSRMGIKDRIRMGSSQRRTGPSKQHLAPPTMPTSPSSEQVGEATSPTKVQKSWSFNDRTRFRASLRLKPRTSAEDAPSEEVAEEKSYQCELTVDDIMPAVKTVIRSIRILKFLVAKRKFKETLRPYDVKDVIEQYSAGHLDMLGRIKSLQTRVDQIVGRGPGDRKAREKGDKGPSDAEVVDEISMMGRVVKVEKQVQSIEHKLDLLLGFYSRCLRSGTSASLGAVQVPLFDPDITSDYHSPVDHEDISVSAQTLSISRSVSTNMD

EC50	potentiation (at 30 µM (top of the series))	Compound
2400 nM		Cc1cc(C)c(NC(=O)C2CC3CCC2C3)c(C)c1 (configuration not stated)
	inactive	Cc1cccc(C)c1NC(=O)C1CC2CCC1C2 (configuration not stated)
